Results as given in patent US20060270641A1, “Method for chemoprevention of prostate cancer” (priority 2005, published 2006).
One block for each compound: values may come before it.

What was measured:
[1] = test system: TRAMP mouse ventral prostate; assay: Histological examination (H&E) of TRAMP prostate tissue; type: in vivo
Procedure: Tumors from the placebo and high toremifene-treated groups taken at the time of palpation were evaluated histologically. FIG. 2A is an H&E section of the ventral prostate of a 17-week-old normal adult mouse.

[2] = test system: prostate glands of TRAMP mice; assay: SERMs in prevention of prostate cancer in the TRAMP model (wholemount and histology at 20 weeks); type: in vivo, mouse; details: sacrificed at 20 weeks; for Animals with prostate cancer / animals evaluated (column has no head): placebo 5/5; for Percent of animals with prostate cancer (column has no head): placebo 100%
Procedure: Experimental design: Chemopreventive treatment of mice is initiated post-natal at 30 days. Three groups of 50 hybrid TRAMP male mice each are treated with either Tamoxifen citrate, Raloxifene (SERMs), or Faslodex (pure antiestrogen ICI 182,780). The drugs are obtained as customized sustained-release pellets (Innovative Research of America, Sarasota, Fla.) and delivered as subcutaneous implants (see preliminary data). Control animals receive placebo implant with no pharmacological activity. Animals (n=10) are sacrificed at periodic intervals, 10, 15, 20, 25 and 30 weeks age, and the efficacy of the treatment leading to either absence of tumor formation or reduction in tumor size, if present, is assessed by comparison with placebo control animals. Blood is collected to evaluate changes in serum androgens and estrogens with each treatment Prostatic tissues is saved: a) for morphometric studies; b) for histologic studies (the tissue will be fixed in 10% buffered formalin, processed and paraffin embedded); c) for molecular studies (the tissues is frozen in liquid nitrogen and stored at −70° C.). Necropsies and survival data is also recorded.
The results of the experiment reveal the relative chemopreventive efficacy of the various antiestrogens in the delay or prevention of prostate cancer in the TRAMP model. The morphological studies indicate the gross changes, if any, in the development of the prostate size and ductal pattern as a result of each treatment. Paraffinized tissue sections are stained using standard H&E techniques for histological changes such as PIN that will be assessed to monitor the appearance of precancerous lesions as a precursor of prostatic adenocarcinoma. Serum estradiol and total testosterone levels are measured for each age interval to assess any changes in these hormones and whether or not they correlate to changes in PIN. The peptide growth factor levels of TGF, TGF 1, TGF 3, and bFGF are quantitative in prostate samples taken at each interval. Corresponding peptide growth factor receptors are also assessed for EGFR and TGF RI and RII.

[3] = test system: human stromal fibroblast cells; assay: TGFβ synthesis in human stromal fibroblast cells; type: cell-based
LNCaP tumors = assay: Regression of established LNCaP tumors in athymic nude mice; type: in vivo
Procedure: Materials and Methods: One million LNCaP cells in Matrigel were subcutaneously injected into each flank of athymic nude mice. A total of 40 mice were injected. After approximately 3-4 weeks, visible tumors developed. After the tumor size was recorded in two dimensions, the mice were divided into placebo and treatment groups based on equivalent tumor burden. A single pellet (placebo versus toremifene 35 mg) was subcutaneously implanted between the scapulae of each mouse. Weekly measurements of the tumor size were recorded. Tumor volume was calculated (tumor volume=[…], where L=tumor length and W=width). The tumor volume at the time of pellet implantation served as the point of reference for future comparison of that tumor's size variation. The weekly variations of each tumor volume were recorded as percent differentiation from the original measurement at pellet implantation.

PIN = details: 60 mg daily for 4 months
prostate of TRAMP mice = assay: TRAMP confirmation study: wholemount, histology, large T antigen immunohistochemistry; type: in vivo, mouse
Procedure: The present study focuses on the histological and molecular changes associated with development of prostate tumor in control animals and the mechanism of toremifene chemopreventive action with TRAMP animals which are bred, screened and treated with sustained-release drug pellets. At predetermined times, groups of 5 animals were sacrificed and their prostates were removed for analysis. The prostate glands were evaluated for the presence of tumor by histology, wholemount dissections, and large T antigen immunohistochemistry. To date, the Placebo and the Toremifene treatments have been completed for the 7, 10, 15 and 20 week time-points, and the results are described below.
Results: Prostatic wholemounts for 7,10,15, and 20 weeks for the various groups have been completed. […] By 20 weeks, there is a striking delay in tumor occurrence in the Toremifene treated group up to 35 weeks FIG. 4). […] For histological evaluation, tissue samples were fixed, processed and paraffin embedded. Sections ([…]) were cut and stained by routine H&E method.

[4] = test system: ventral prostate of TRAMP mice; assay: Chemopreventive activity in TRAMP transgenic mice, absence of palpable tumor formation; type: in vivo, mouse; details: for Week at which tumor formation in the ventral prostate was noted: n=12, placebo week 17; for Animals still tumor-free: all control animals had tumors
Description: The study of prostate cancer chemoprevention has been hindered by the lack of appropriate animal models. The recent development of the transgenic adenocarcinoma mouse prostate (TRAMP) model enables the study of chemoprevention. In the TRAMP model, which is described in Greenberg et al., A Prostate cancer in a transgenic mouse, Proc. Natl Acad. Sci. USA, 1995, Vol. 92, pages 3439-3443, the PB-SV40 large T antigen (PB-Tag) transgene is expressed specifically in the epithelial cells of the murine prostate. As a result, this model has several advantages over currently existing models: 1) mice develop progressive forms of prostatic epithelial hyperplasia as early as 10 weeks and invasive adenocarcinoma around 18 weeks of age; 2) the metastatic spread of prostate cancer pattern mimics human prostate cancer with the common sites of metastases being lymph node, lung, kidney, adrenal gland, and bone; 3) the development as well as the progression of prostate cancer can be followed within a relatively short period of 10-30 weeks; 4) the tumors arise with prostate cancer transgene prior to the onset of clinical prostate cancer to directly test treatment with chemopreventive agents that may alter prostate carcinogenesis.
A study was undertaken to test the efficacy of chemopreventive agents in TRAMP transgenic animals (PBTag×FVBwt)(provided by Dr. Norman Greenberg, Baylor College of Medicine, Tex.). […] The TRAMP transgenic male litters were screened for the Large Tag transgene, and the positive males were used in the study. The antiestrogen toremifene, which was to be tested for its possible chemopreventive effects, was incorporated in customized pellets (Innovative Research of America, Sarasota, Fla.), and chemopreventive treatment of mice was initiated postnatally at 30 days (average mouse weight 14 g) Four groups of 10-12 animals each received subcutaneous implantations of 90 day-release toremifene-containing pellets. The diffusible drug dosage, adjusted for growth related changes in weight, was designed to deliver either a low dose (6 mg/kg) or a high dose (30 mg/kg) of toremifene. Control animals (n=IO) received placebo implants The efficacy of the treatment was measured by the absence of palpable tumor formation. The murine prostate tumors were harvested and evaluated by molecular and histological techniques

Quality of life, including potency and libido (PIN): unchanged | Serum PSA, serum free testosterone, serum total testosterone and serum estradiol (PIN): remained in the normal ranges
SMILES: CN(C)CCOc1ccc(/C(=C(/CCCl)c2ccccc2)c2ccccc2)cc1 [Toremifene]
Mitotic index relative to placebo-treated animal ([1]; toremifene-treated 30-week-old TRAMP mouse vs placebo-treated 16-week-old): much lower | Prostate histology (glandular architecture) ([1]; toremifene-treated 30-week-old TRAMP mouse, H&E, FIG. 2C): retains much of the normal glandular architecture | Animals with prostate cancer / animals evaluated (column has no head) ([2]; 20 mg/kg/d): 1/7 | Percent of animals with prostate cancer (column has no head) ([2]; 20 mg/kg/d): 14.2% | TGFβ synthesis [3]: significantly induce | Mean tumor volume after treatment (LNCaP tumors; toremifene 35 mg pellet, 1.90 mm^3 at pellet implantation, placebo increased to 2.33): 1.68 mm^3 | Mean serum PSA level (LNCaP tumors; toremifene 35 mg pellet, not statistically significant vs placebo (p=0.755)): 2.80 ng/mL | Change of mean tumor volume (LNCaP tumors; toremifene 35 mg pellet, vs volume at pellet implantation): −0.22 mm^3 | % Change in volume relative to day 0 of treatment (LNCaP tumors; week 3, toremifene 35 mg sc pellet, N=11): −34.58% | % Change in volume relative to day 0 of treatment (LNCaP tumors; week 4, toremifene 35 mg sc pellet, N=7): −61.01% | % Change in volume relative to day 0 of treatment (LNCaP tumors; week 5, toremifene 35 mg sc pellet, N=7): −74.51% | % Change in volume relative to day 0 of treatment (LNCaP tumors; week 6, toremifene 35 mg sc pellet, N=5): −61.72% | Acute or chronic toxicities (PIN): no acute or chronic toxicities | Complete response (PIN; 16 patients completed): 75% | Patients who had prostate cancer but the amount of PIN was reduced (PIN; of 16 patients): 3 patients | Patients with stable disease (PIN epithelium with atrophic and degenerative changes) (PIN; of 16 patients): 1 patient | Patients with regression of PIN to benign or atrophic prostate tissue (PIN; rebiopsy (8 biopsies)): 12 out of 16 | Delay in the occurrence of prostate cancer (wholemount analysis) (prostate of TRAMP mice; FIG. 3, placebo tumors by 15-20 weeks of age): up to 20 weeks | Delay in tumor occurrence (prostate of TRAMP mice; FIG. 4): up to 35 weeks | Effect on ductal development and tissue differentiation (histology) (prostate of TRAMP mice; H&E sections): inhibited the ductal development and tissue differentiation | Delay of time to palpable tumors in 25% of the animals ([4]; high and low toremifene groups vs placebo): 7-8 weeks | Time at which tumors were palpable in 25% of the animals ([4]; high and low toremifene groups, placebo week 23): 30-31 weeks | Week at which tumor formation in the ventral prostate was noted ([4]; high dose (30 mg/kg) 90 day-release sc pellet): 19 week | Week at which tumor formation in the ventral prostate was noted ([4]; low dose (6 mg/kg) 90 day-release sc pellet): 28 week | Increase of latency period for development of cancer in the ventral prostate ([4]; vs placebo): up to 11 weeks | Animals still tumor-free ([4]; week 33, high dose (30 mg/kg)): 60% | Animals still tumor-free ([4]; week 33, low dose (6 mg/kg)): 72%

SMILES: O=C(c1ccc(OCCN2CCCCC2)cc1)c1c(-c2ccc(O)cc2)sc2cc(O)ccc12 [Raloxifene, 6-hydroxy-2-(4-hydroxyphenyl)-3-[4-(2-piperidinoethoxy)benzoyl]benzo[b]thiophene]
Animals with prostate cancer / animals evaluated (column has no head) ([2]; 20 mg/kg/d): 3/10 | Percent of animals with prostate cancer (column has no head) ([2]; 20 mg/kg/d): 30%

SMILES: C[C@]12CC[C@@H]3c4ccc(O)cc4C[C@@H](CCCCCCCCC[S+]([O-])CCCC(F)(F)C(F)(F)F)[C@H]3[C@@H]1CC[C@@H]2O (some centres unmarked) [Faslodex]
Animals with prostate cancer / animals evaluated (column has no head) ([2]; 10 mg/kg/d): 8/11 | Percent of animals with prostate cancer (column has no head) ([2]; 10 mg/kg/d): 72%

SMILES: CC/C(=C(\c1ccccc1)c1ccc(OCCN(C)C)cc1)c1ccccc1 [Tamoxifen]
Animals with prostate cancer / animals evaluated (column has no head) ([2]; 20 mg/kg/d): 2/9 | Percent of animals with prostate cancer (column has no head) ([2]; 20 mg/kg/d): 22%
